Like-named read-outs stand apart in the source and are kept apart here.
What was measured:
L1210/0 = test: Cytostatic assay, L1210/0 cells; type: cell-based, murine
From the text: (§1) The cell lines employed were L1210/0 (a leukemia cell line), FM3A/0 (a breast cancer cell line), Cem/0 (an acute lymphoblastic leukemia cell line) and HeLa (a cervical cell line).

L1210/TK^− = test: Cytostatic assay, thymidine kinase-deficient L1210/TK^− cells; type: cell-based, murine
Cem/0 = test: Cytostatic assay, CEM/0 cells; type: cell-based, human; conditions: for IC50: read-out: IC50 Cem/0; for CC50: read-out: CC50 Cem/0
From the text: as §1

Cem/TK^− = test: Cytostatic assay, thymidine kinase-deficient CEM/TK^− cells; type: cell-based, human; conditions: for IC50: read-out: IC50 Cem/TK^−; for CC50: read-out: CC50 Cem/TK^−
HeLa = test: Cytostatic assay, HeLa cells; type: cell-based; conditions: for IC50: read-out: IC50 HeLa; for CC50: read-out: CC50 HeLa
From the text: as §1

HeLa/TK^− = test: Cytostatic assay, HeLa/TK^− cells; type: cell-based; conditions: for IC50: read-out: IC50 HeLa/TK^−; for CC50: read-out: CC50 HeLa/TK^−
From the text: as §1

L1210.Hyor = test: Cytostatic assay, Mycoplasma hyorhinis-infected L1210 cells; conditions: for % Retention: CC50 L1210 × 100 ÷ CC50 L1210/Hyor; for CC50: L1210, read-out: CC50 L1210/Hyor
From the text: Murine leukaemia L1210/0 and human T-lymphocyte CEM/0 cells were obtained from the American Type Culture Collection (ATCC) (Rockville, Md.). Human glioblastoma U87 cells were kindly provided by Dr. E. Menue (Institut Pasteur, Paris, France). […] S. Eriksson (currently at Uppsala University, Uppsala, Sweden) and Prof A. Karlsson (Karolinska Institute, Stockholm, Sweden). […] All cells were maintained in Dulbecco's modified Eagle's medium (DMEM) (Invitrogen, Carlsbad, Calif.) with 10% foetal bovine serum (FBS) (Biochrom AG, Berlin, Germany), 10 mM Hepes and 1 mM Sodium Pyruvate (Invitrogen). Cells were grown at 37° C. in a humidified incubator with a gas phase of 5% CO2.
Monolayer cells (U87 and U87.Hyor) were seeded in 48-well microtiter plates (Nunc™, Roskilde, Denmark) at 10,000 cells/well. After 24 hours, an equal volume of fresh medium containing the test compounds was added. On day 5, cells were trypsinized and counted in a Coulter counter (Analis, Suarlée, Belgium). Suspension cells (L1210/0, L1210/TK^−, L1210.Hyor, CEM/0, CEM/TK^−) were seeded in 96-well microtiter plates (Nunc™) at 60,000 cells/well in the presence of a given amount of the test compounds. The cells were allowed to proliferate for 48 h (L1210) or 72 hours (CEM) and were then counted in a Coulter counter.
Samples were also assayed for their % retention of activity in mycoplasma infected cells.
The L1210/0 cell cultures were infected with the mycoplasma species M. hyorhinis (cells designated: L1210.Hyor).

[1] = Table 6, read-out: IC50 L1210/0
[2] = Table 7, read-out: IC50 L1210/0
[3] = Table 6, read-out: IC50 L1210/TK^−
[4] = read-out: IC50 L1210.Hyor, Table 7
[5] = Mus musculus, L1210/0, Table 1, read-out: CC50 L1210/0
[6] = Mus musculus, L1210, Table 1, read-out: CC50 L1210/TK^−
[7] = Homo sapiens, CCRF-CEM, Table 1
[8] = Homo sapiens, CEM-TK(-), Table 1
[9] = Mus musculus, L1210/0, Table 2, mycoplasma negative cells, read-out: CC50 L1210
[10] = Mus musculus, L1210/0, Table 6, read-out: IC50 L1210/0
[11] = Mus musculus, L1210/0, Table 7, read-out: IC50 L1210/0
[12] = Mus musculus, L1210, Table 6, read-out: IC50 L1210/TK^−
[13] = Homo sapiens, CCRF-CEM, Table 6
[14] = Homo sapiens, CEM-TK(-), Table 6
[15] = Mus musculus, L1210, read-out: IC50 L1210.Hyor

Compound	IC50 (L1210/0; [1]) [nM]	IC50 (L1210/0; [2]) [nM]	IC50 (L1210/TK^−; [3]) [nM]	IC50 (Cem/0; Table 6) [nM]	IC50 (Cem/TK^−; Table 6) [nM]	IC50 (HeLa; Table 6) [nM]	IC50 (HeLa/TK^−; Table 6) [nM]	IC50(L1210.Hyor)/IC50(L1210/0) (L1210.Hyor; Table 7)	IC50 (L1210.Hyor; [4]) [nM]	CC50 (L1210/0; [5]) [nM]	CC50 (L1210/TK^−; [6]) [nM]	CC50 (Cem/0; [7]) [nM]	CC50 (Cem/TK^−; [8]) [nM]	CC50 (HeLa; Homo sapiens, HeLa, Table 1) [nM]	CC50 (HeLa/TK^−; Homo sapiens, HeLa, Table 1) [nM]	% Retention (L1210.Hyor) [%]	CC50 (L1210.Hyor; Mus musculus) [nM]	IC50 (L1210.Hyor; [15]) [nM]	further results
CCCOC(=O)C(C)NP(=O)(OCC1OC(n2cc(F)c(=O)[nH]c2=O)CC1O)Oc1cccc2ccccc12 (stereo not drawn) [Nap Pr Ala]	21 ± 12	30 ± 0.35	160 ± 70	140 ± 10	1100 ± 200	110 ± 30	2500 ± 100	1.2	36 ± 6.4	–	–	–	–	–	–	–	–	–	–
CCOC(=O)[C@H](C)NP(=O)(O)OCC1OC(n2cc(F)c(=O)[nH]c2=O)CC1O (stereo partly drawn) [CPF 437, reference compound]	–	–	–	–	–	–	–	–	–	36000 ± 5000	> 100000	> 100000	> 100000	> 100000	> 100000	–	–	–	–
CSCC[C@H](NP(=O)(OC[C@H]1O[C@@H](n2cc(F)c(=O)[nH]c2=O)CC1O)Oc1ccccc1)C(=O)OCc1ccccc1 (stereo partly drawn) [CPF 586, 5-Fluoro-2′-deoxyuridine-5′-O-[phenyl-(benzoxy-L-methioninyl)] phosphate]	–	–	–	–	–	–	–	13	–	73 ± 35	4100 ± 1200	280 ± 30	25000	150 ± 20	11000 ± 7000	11	870	760 ± 180	CC50 (L1210/0; [9]): 100 nM; IC50 (L1210/0; [10]): 73 ± 35 nM; IC50 (L1210/0; [11]): 58 ± 35 nM; IC50 (L1210/TK^−; [12]): 4100 ± 1200 nM; IC50 (Cem/0; [13]): 280 ± 30 nM; IC50 (Cem/TK^−; [14]): 25000 nM; IC50 (HeLa; Homo sapiens, HeLa, Table 6): 150 ± 20 nM; IC50 (HeLa/TK^−; Homo sapiens, HeLa, Table 6): 11000 ± 7000 nM
C[C@H](NP(=O)(OC[C@H]1O[C@@H](n2cc(F)c(=O)[nH]c2=O)C[C@@H]1O)Oc1ccccc1)C(=O)OC1CCCCC1 (stereo partly drawn) [CPF 508, 5-Fluoro-2′deoxyuridine-5′-O-[phenyl (cyclohexoxy-L-alaninyl)] phosphate]	39 ± 1	32 ± 5	140 ± 20	170 ± 70	1200 ± 10	180 ± 50	5900 ± 400	1.25	40 ± 16	–	–	–	–	–	–	–	–	–	–
CC(C)CC(NP(=O)(OCC1OC(n2cc(F)c(=O)[nH]c2=O)CC1O)Oc1ccccc1)C(=O)OCc1ccccc1 (stereo not drawn) [Ph Bn Leu]	44 ± 25	54 ± 2.1	2000 ± 300	240 ± 40	16000 ± 1000	67 ± 42	5600 ± 300	3.2	170 ± 47	–	–	–	–	–	–	–	–	–	–
O=C(OCc1ccccc1)C1CCCN1P(=O)(OC[C@H]1O[C@@H](n2cc(F)c(=O)[nH]c2=O)CC1O)Oc1ccccc1 (stereo partly drawn) [CPF 583, 5-Fluoro-2′-deoxyuridine-5′-O-[phenyl(benzoxy-L-prolinyl)] phosphate]	–	–	–	–	–	–	–	51	–	–	–	–	–	–	–	3.3	11900	18000 ± 710	CC50 (L1210/0; Mus musculus, L1210/0, read-out: CC50 L1210): 387 nM; CC50 (L1210/0; Mus musculus, L1210/0, read-out: CC50 L1210/0): 350 ± 70 nM; IC50 (L1210/0; Mus musculus, L1210/0, read-out: IC50 L1210/0, Table 6): 350 ± 70 nM; IC50 (L1210/0; Mus musculus, L1210/0, read-out: IC50 L1210/0, Table 7): 350 ± 22 nM; CC50 (L1210/TK^−; Mus musculus, L1210, read-out: CC50 L1210/TK^−): 31000 ± 5000 nM; IC50 (L1210/TK^−; Mus musculus, L1210, read-out: IC50 L1210/TK^−): 31000 ± 5000 nM; CC50 (Cem/0; Homo sapiens, CCRF-CEM): 980 ± 400 nM; IC50 (Cem/0; Homo sapiens, CCRF-CEM): 980 ± 400 nM; CC50 (Cem/TK^−; Homo sapiens, CEM-TK(-)): 28000 ± 8000 nM; IC50 (Cem/TK^−; Homo sapiens, CEM-TK(-)): 28000 ± 8000 nM; CC50 (HeLa; Homo sapiens, HeLa): 1100 ± 400 nM; IC50 (HeLa; Homo sapiens, HeLa): 1100 ± 400 nM; CC50 (HeLa/TK^−; Homo sapiens, HeLa): 20000 ± 11000 nM; IC50 (HeLa/TK^−; Homo sapiens, HeLa): 20000 ± 11000 nM
C[C@H](NP(=O)(OC[C@H]1O[C@@H](n2cc(F)c(=O)[nH]c2=O)CC1O)Oc1cccc2ccccc12)C(=O)OCCC(C)(C)C (stereo partly drawn) [CPF 585, 5-Fluoro-2′-deoxyuridine-5′-O-[1-naphthyl(3,3-dimethyl-1-butoxy-L-alaninyl)] phosphate]	–	–	–	–	–	–	–	2.7	–	16 ± 6	62 ± 9	53 ± 21	190 ± 40	78 ± 18	1300 ± 900	41	51	32 ± 8.8	CC50 (L1210/0; [9]): 21 nM; IC50 (L1210/0; [10]): 16 ± 6 nM; IC50 (L1210/0; [11]): 12 ± 1.8 nM; IC50 (L1210/TK^−; [12]): 62 ± 9 nM; IC50 (Cem/0; [13]): 53 ± 21 nM; IC50 (Cem/TK^−; [14]): 190 ± 40 nM; IC50 (HeLa; Homo sapiens, HeLa, Table 6): 78 ± 18 nM; IC50 (HeLa/TK^−; Homo sapiens, HeLa, Table 6): 1300 ± 900 nM

— patent US10993957B2 (NuCana plc, priority 2011, dated 2021)
